US5466716A, “Liposomal trimethylsphingosine” (The Biomembrane Institute, priority 1994, dated 1995)
“Also recorded” adds a separate entry of the source. Read-outs that look alike come from different tables or passages of the source. One block for each compound: values may come before it.

What was measured:
[1] = tested on: protein kinase-C; details: cited from earlier work
[2] = tested on: neutrophils; test: phagokinetic activity of neutrophils on gold sol-coated plates; format: cell-based, human; details: for activity at 4.5 µM / activity at 12 µM: Homo sapiens, Neutrophil; for activity at 4.5 µM: 2 h, read-out: Area Swept; for activity at 12 µM: read-out: Area Swept (recovery of phagokinetic activity)
Method: The phagokinetic activity of neutrophils on gold sol-coated plates can be determined by a technique essentially as taught in Albrecht-Buehler (Cell, 11, 395, 1977). […] Thus, the inhibitory effect of TMS on phagokinetic activity is not dependent on cytotoxicity.
.sctn. The area swept by neutrophils was determined in photographs of the
monolayers. The regions cleared by neutrophil movement were then cut out
Phagokinetic activity was observed by tracing tracks of neutrophils moving on a glass substrate covered with gold colloid particles. The technique was described originally by Albrecht-Buehler, supra, using 3T3 and other cell lines. Briefly, 22×22 mm square glass coverslips (Corning Glass Works, Corning, N.Y.) were dipped for 1 min into 1% BSA prepared in Milli Q water. The BSA solution was prepared fresh each day and passed through 0.20 μm Nalgene filters (Nalgene Labware Division, Rochester, N.Y.).
The coverslip then was drained by touching a Kim-wipe paper towel to its edge, dipped into 100% ethanol and rapidly and completely dried in a 85° C. hot airstream. The coverslip was placed in a 3.5 cm Falcon plastic dish. Then 5.4 ml of AuCl4 H and 18 ml of 36.5 mM Na2 CO3 were added to 33 ml of distilled water and heated. Immediately after reaching the boiling point, 5.4 ml of 0.1% formaldehyde in water were added quickly and mixed. The suspension of gold particles forming a brownish color was distributed immediately onto the dish (2 ml each) and the coverslip was incubated for 2 hr at 37° C.
Particle-coated coverslips were washed in PBS, then twice in RPMI 1640 and finally put in another 3.5 cm Falcon plastic dish containing 2 ml of RPMI 1640 with glutamate and pyruvate. The coverslips were stored at 4° C. and used within 24 hr after preparation.
The freshly-purified neutrophils (1×10^4 cells/plate) were added onto the colloid-coated coverslip. TMS and other effectors were added into the medium on the plate. As a control, the solvent of the effectors (50% ethanol) was added at an equal amount. At that concentration (0.1%), ethanol brought no significant effect on neutrophil activities. To observe cell recovery from exposure to the effectors, neutrophils (2×10^5 cells/ml) were pre-incubated at 37° C. with 12 μM of TMS, SPN and DMS, then distributed to the dish dropwise, diluting the effectors 200-fold. Incubation was conducted under 5% CO2 at 37° C. for 2 hr and terminated by adding 200 μl of 10% formaldehyde. Microscopic examination of each plate was performed with a Nikon microscope, connected to a Polaroid camera for recordings. Phagokinetic activity was measured by tracing the track of a neutrophil. The track was recorded with photographs, then the area was measured by cutting and weighing there swept area.

[3] = water solubility; format: physicochemical; details: for appearance of aqueous solution: neutral or physiologic pH
Excerpt: For comparison purposes those same test cells also are exposed to sphingosine and N,N-dimethylsphingosine.

[4] = tested on: platelets; test: platelet aggregation; format: cell-based, human
Method: FIGS. 7A and 7B depict the effect of N,N,N-trimethylsphingosine (TMS) on platelet aggregation. A 0.45 ml aliquot of human platelet suspension (3-5×10^5 platelets per μl of Tyrode's buffer) was incubated with sphingosine or TMS for 2 minutes. Then platelet aggregation was induced by the addition of either γ-thrombin (FIG. 7A) or adenosine diphosphate (ADP) (FIG. 7B) in 0.05 ml. The degree of aggregation was determined in an aggregometer and the data analyzed with an integrated computer (Kyoto Daiichi Kagaku Co. Ltd.).
FIG. 8 depicts further the dose response of platelet aggregation by sphingoid. Aggregation of the platelets was induced with 10 nM γ-thrombin.
Platelets were isolated from platelet-rich plasma (purchased from the Oregon Red Cross, Portland, Oreg. Contaminating erythrocytes were removed by centrifugation (80×g for 10 minutes). Platelets were obtained by centrifugation (300×g for 10 minutes), washed once in Tyrodes's buffer (pH 6.5) containing 22 mM trisodium citrate and 0.35% (w/v) BSA and resuspended in the same buffer to obtain a concentration of 1-2×10^9 platelets/ml. All procedures were performed at room temperature.
A suspension of platelets (3.5×10^8 /ml) in Tyrode's buffer was preincubated with various inhibitor compounds (H-7 is [1-(5-isoquinolinylsulfonyl)-2-methylpiperazine, a synthetic protein kinase-C inhibitor purchased from Seikagaku America Inc., St. Petersburg, Fla.], calphostin-C [a synthetic protein kinase-C inhibitor obtained from Dr. Saitoh, Kyowa Hakko Co., Ltd., Machida, Tokyo, Japan], sphingosine [purchased from Sigma, St. Louis, Mo.] and dimethylsphingosine and trimethylsphingosine [synthesized according to Igarashi et al., Biochem., 28, 6796, 1989]) followed by addition of thrombin or ADP (both purchased from Sigma). Platelet aggregation was evaluated by transmittance change using an aggregometer (Chrono-log Corp., Havertown, Pa.) equipped with a computer analyzer.

[5] = tested on: human colonic cancer cell line COLO-205; test: tritiated thymidine incorporation, tumor cell growth (COLO-205); format: cell-based; details: COLO-205, FIG. 2A
Excerpt: FIGS. 2A-2C show the effect of sphingosine derivatives on human tumor cell growth. In FIG. 2A the growth of human colonic cancer cell line COLO-205 was monitored. In FIG. 2B the growth of human lung cancer cell line LU-65 was monitored. In FIG. 2C the growth of human gastric cancer cell line MKN-74 was monitored. In each Figure the ordinate represents the percent inhibition of tritiated thymidine incorporation, the solid circles represent sphingosine, the open circles represent N,N-dimethylsphingosine and the triangles represent N,N,N-trimethylsphingosine.
An in vitro assay relying on tritiated thymidine incorporation can be used to ascertain the effect of various compounds on cell proliferation. Briefly, tumor cells are seeded in flat bottom 96 well plates (Corning, N.Y.) at a concentration of 2×10^4 cells per well. The cells are cultured for 2 days in DMEM containing various concentrations of sphingoid, which is added as a PBS solution. The medium then is supplemented with tritiated thymidine at a concentration of 0.5 μCi per well. Following a six hour incubation the cells are collected using the PHD Cell Harvester (Cambridge Technology, Cambridge, Mass.) and amounts of incorporated radioactivity are determined after adding a suitable cell lysing agent and scintillation cocktail, such as ScintiVerse BD (Fisher Scientific, Fairlawn, Calif.) which performs both functions. […]

[6] = chloride salts and slightly acidic pH
[7] = Table IV, 12 μM preincubation then 200-fold dilution, control 100

Compound: CCCCCCCCCCCCC/C=C/[C@@H](O)[C@@H](N)CO [SPN, sphingosine]
PK-C inhibition ([1]; below 100 μM, Igarashi et al.): did not inhibit PK-C
activity at 4.5 µM [2]: 14 ± 7%
activity at 12 µM [2]: 42 ± 24%
water solubility [3, 6]: soluble in water
appearance of aqueous solution [3]: tend to form opaque suspensions
water solubility ([3]; particularly at physiologic pH): less water soluble

water solubility [3, 6]: soluble in water
appearance of aqueous solution [3]: tend to form opaque suspensions
water solubility ([3]; particularly at physiologic pH): less water soluble
Compound: CCCCCCCCCCCCC/C=C/[C@@H](O)[C@H](CO)N(C)C [DMS, (4E)-N,N-dimethyl-D-erythro-sphingosine]
inhibition of thrombin- or ADP-induced platelet aggregation ([4]; thrombin or ADP, compared with TMS): did not inhibit thrombin- or ADP-induced platelet aggregation as well as did TMS
activity at 4.5 µM ([2]; Table I, 4.5 μM, control 100): 26 ± 25%
activity at 12 µM [2, 7]: 32 ± 19%

solubility in aqueous solvents [3]: excellent solubility
solubility ([3]; acidic, neutral or basic conditions): stable, clear solutions
water solubility ([3]; particularly at physiologic pH): highly water soluble
Compound: CCCCCCCCCCCCC/C=C/[C@@H](O)[C@H](CO)[N+](C)(C)C [TMS, N,N,N-trimethylsphingosine]
inhibition of ATP secretion associated with platelet aggregation [4]: inhibited strongly
inhibition of platelet aggregation [4]: inhibited strongly; also recorded: inhibited platelet aggregation in a dose-responsive fashion
ristocetin-induced platelet aggregation following incubation ([4]; exclusion of cytotoxicity on platelets): normal ristocetin-induced aggregation
inhibition of tumor cell growth [5]: superior to sphingosine; also recorded: showed an advantage over DMS
suppression of phagokinetic activity ([2]; 1.5 μM): suppressed significantly
suppression of phagokinetic activity ([2]; 4.5 μM): completely suppressed
neutrophil migration (phagokinetic) ([2]; Example 9): inhibited neutrophil migration
activity at 4.5 µM ([2]; Table I, 4.5 μM, control 100): 16 ± 18%
activity at 12 µM [2, 7]: 92 ± 34%
reversal of inhibitory effect on phagokinetic activity ([2]; medium replaced with TMS-free medium): reversed completely

Compound: Calphostin C
concentration reported to inhibit protein kinase-C ([1]; in vitro, Tamaoki & Nakano): 0.05 µM
Area Swept ([2]; Table I, 0.5 μM, control 100, 120 min): 39 ± 11%
